Data reported in US8680052B1, “Methods of treating, reducing the incidence of, and/or preventing ischemic events” (The Medicines Company, priority 2013, dated 2014).
Read-outs that look alike come from different tables or passages of the source.

Tested on: patients with acute coronary syndromes undergoing PCI
Details: for Stent thrombosis / All-cause mortality / IDR / MI / Mortality/MI/IDR / Mortality/Q-wave MI/IDR / Mortality/Q-wave MI/Stent thrombosis / Q-wave MI / All-cause mortality OR (95% CI) / IDR OR (95% CI) / MI OR (95% CI) / Mortality/MI/IDR OR (95% CI) / Mortality/Q-wave MI/IDR OR (95% CI) / Mortality/Q-wave MI/Stent thrombosis OR (95% CI) / Stent thrombosis OR (95% CI) / Q-wave MI OR (95% CI): 30 days; for All-cause mortality OR (95% CI) / IDR OR (95% CI) / MI OR (95% CI) / Mortality/MI/IDR OR (95% CI) / Mortality/Q-wave MI/IDR OR (95% CI) / Mortality/Q-wave MI/Stent thrombosis OR (95% CI) / Stent thrombosis OR (95% CI) / Q-wave MI OR (95% CI): Cangrelor vs Clopidogrel; for Angiographic complications (site reported): Abrupt vessel closure / Angiographic complications (site reported): Acute stent thrombosis / Angiographic complications (site reported): Need for urgent CABG / Angiographic complications (site reported): New thrombus or suspected thrombus / Angiographic complications (site reported): Threatened abrupt closure / Angiographic complications (site reported): Unsuccessful procedure: index PCI
Description: Patients were eligible for enrollment if they had stable angina, unstable angina, or non-ST-segment elevation (NSTE) MI with obstructive coronary artery disease and were scheduled to undergo PCI.
The infusion began within 30 minutes prior to PCI and continued for at least 2 hours or until the conclusion of the index procedure, whichever was longer. At the treating physician's discretion, the infusion could be continued for 4 hours.
All patients received aspirin 75-325 mg per local site standards. Adjunctive anticoagulants (unfractionated heparin, low molecular weight heparin, bivalirudin, or fondaparinux) and the procedural use of glycoprotein IIb/IIIa inhibitors were determined by the treating physician.
The primary efficacy endpoint was the 48-hour composite of all-cause mortality, MI, or ischemia-driven revascularization. Prespecified secondary efficacy endpoints included the composite of mortality or MI at 48 hours and 30 days; the composite of mortality, MI, or ischemia-driven revascularization at 30 days; the components of the composite endpoints at 48 hours and 30 days; stroke at 48 hours; abrupt closure, threatened abrupt closure, need for urgent coronary artery bypass grafting, or unsuccessful procedure during the index PCI; acute (24 hours) and 48 hours stent thrombosis; and all-cause mortality at 6 months and 1 year.
Rates of MI and ischemia-driven revascularization up to 30 days following the index procedure were assessed. Ischemia-driven revascularization was defined as symptoms of myocardial ischemia leading to urgent (within 24 hours of the last episode of ischemia) revascularization, which must have occurred after the index procedure concluded (i.e., guidewire removal). New electrocardiographic changes, acute pulmonary edema, ventricular arrhythmias, or hemodynamic instability could also constitute evidence of ischemia.
MI was defined by a new Q wave (duration >0.03 seconds) in two contiguous electrocardiographic leads or elevations in creatine kinase (CK) and CK-MB, including a rise of CK-MB≧3 times the local upper limit or normal and, when biomarkers were elevated prior to PCI, an additional 50% above baseline. One baseline troponin measurement was required for patients undergoing urgent PCI. Measurements of CK-MB were obtained at 2, 10, 17, and 24 hours post-PCI.
The primary efficacy analysis was to be determined in the modified intent-to-treat (mITT) population, defined as all randomized patients (excluding STEMI cohort) who received at least one dose of study drug and underwent the index PCI. The safety population consisted of all randomized patients who received any study drug. Patients in the safety analyses were assigned to a treatment arm based on treatment received, not as randomized.

CSCCNc1nc(SCCC(F)(F)F)nc2c1ncn2[C@@H]1O[C@H](COP(=O)(O)OP(=O)(O)C(Cl)(Cl)P(=O)(O)O)[C@@H](O)[C@H]1O [Cangrelor, cangrelor]
Stent thrombosis (ITT): 27 (0.6) no. (%)
All-cause mortality (ITT With STEMI): 8 (1.7) no. (%)
IDR (ITT With STEMI): 16 (3.4) no. (%)
MI (ITT With STEMI): 20 (4.2) no. (%)
Mortality/MI/IDR (ITT With STEMI): 36 (7.6) no. (%)
Mortality/Q-wave MI/IDR (ITT With STEMI): 23 (4.9) no. (%)
Mortality/Q-wave MI/Stent thrombosis (ITT With STEMI): 14 (3.0) no. (%)
Q-wave MI (ITT With STEMI): 2 (0.4) no. (%)
Stent thrombosis (ITT With STEMI): 7 (1.5) no. (%)
All-cause mortality OR (95% CI) (ITT With STEMI): 0.524 (0.222, 1.235)
IDR OR (95% CI) (ITT With STEMI): 1.139 (0.557, 2.331)
MI OR (95% CI) (ITT With STEMI): 1.263 (0.653, 2.441)
Mortality/MI/IDR OR (95% CI) (ITT With STEMI): 0.929 (0.582, 1.480)
Mortality/Q-wave MI/IDR OR (95% CI) (ITT With STEMI): 0.778 (0.447, 1.355)
Mortality/Q-wave MI/Stent thrombosis OR (95% CI) (ITT With STEMI): 0.560 (0.289, 1.085)
Stent thrombosis OR (95% CI) (ITT With STEMI): 0.741 (0.280, 1.962)
All-cause mortality (ITT Without STEMI): 32 (0.8) no. (%)
IDR (ITT Without STEMI): 46 (1.2) no. (%)
MI (ITT Without STEMI): 298 (7.6) no. (%)
Mortality/MI/IDR (ITT Without STEMI): 345 (8.8) no. (%)
Mortality/Q-wave MI/IDR (ITT Without STEMI): 79 (2.0) no. (%)
Mortality/Q-wave MI/Stent thrombosis (ITT Without STEMI): 54 (1.4) no. (%)
Q-wave MI (ITT Without STEMI): 7 (0.2) no. (%)
Stent thrombosis (ITT Without STEMI): 20 (0.5) no. (%)
All-cause mortality OR (95% CI) (ITT Without STEMI): 1.027 (0.626, 1.687)
IDR OR (95% CI) (ITT Without STEMI): 0.846 (0.569, 1.257)
MI OR (95% CI) (ITT Without STEMI): 1.081 (0.912, 1.281)
Mortality/MI/IDR OR (95% CI) (ITT Without STEMI): 1.037 (0.886, 1.215)
Mortality/Q-wave MI/IDR OR (95% CI) (ITT Without STEMI): 0.891 (0.656, 1.211)
Mortality/Q-wave MI/Stent thrombosis OR (95% CI) (ITT Without STEMI): 0.959 (0.658, 1.397)
Q-wave MI OR (95% CI) (ITT Without STEMI): 0.463 (0.189, 1.138)
Stent thrombosis OR (95% CI) (ITT Without STEMI): 0.995 (0.535, 1.852)
All-cause mortality OR (95% CI) (ITT): 0.852 (0.558, 1.301)
IDR OR (95% CI) (ITT): 0.899 (0.637, 1.271)
MI OR (95% CI) (ITT): 1.095 (0.929, 1.291)
Mortality/MI/IDR OR (95% CI) (ITT): 1.026 (0.884, 1.192)
Mortality/Q-wave MI/IDR OR (95% CI) (ITT): 0.856 (0.655, 1.119)
Mortality/Q-wave MI/Stent thrombosis OR (95% CI) (ITT): 0.829 (0.599, 1.146)
Q-wave MI OR (95% CI) (ITT): 0.601 (0.263, 1.374)
Stent thrombosis OR (95% CI) (ITT): 0.902 (0.535, 1.519)
All-cause mortality (MITT): 40 (0.9) no. (%)
IDR (MITT): 60 (1.4) no. (%)
MI (MITT): 315 (7.3) no. (%)
Mortality/MI/IDR (MITT): 376 (8.7) no. (%)
Mortality/Q-wave MI/IDR (MITT): 100 (2.3) no. (%)
Mortality/Q-wave MI/Stent thrombosis (MITT): 68 (1.6) no. (%)
Q-wave MI (MITT): 9 (0.2) no. (%)
Stent thrombosis (MITT): 27 (0.6) no. (%)
All-cause mortality (MITT With STEMI): 8 (1.8) no. (%)
IDR (MITT With STEMI): 16 (3.7) no. (%)
MI (MITT With STEMI): 18 (4.1) no. (%)
Mortality/MI/IDR (MITT With STEMI): 34 (7.8) no. (%)
Mortality/Q-wave MI/IDR (MITT With STEMI): 23 (5.3) no. (%)
Mortality/Q-wave MI/Stent thrombosis (MITT With STEMI): 14 (3.2) no. (%)
Q-wave MI (MITT With STEMI): 2 (0.5) no. (%)
Stent thrombosis (MITT With STEMI): 7 (1.6) no. (%)
All-cause mortality OR (95% CI) (MITT With STEMI): 0.732 (0.292, 1.838)
IDR OR (95% CI) (MITT With STEMI): 1.165 (0.561, 2.416)
MI OR (95% CI) (MITT With STEMI): 1.146 (0.577, 2.278)
Mortality/MI/IDR OR (95% CI) (MITT With STEMI): 1.015 (0.619, 1.665)
Mortality/Q-wave MI/IDR OR (95% CI) (MITT With STEMI): 0.929 (0.519, 1.663)
Mortality/Q-wave MI/Stent thrombosis OR (95% CI) (MITT With STEMI): 0.665 (0.334, 1.325)
Stent thrombosis OR (95% CI) (MITT With STEMI): 0.705 (0.266, 1.869)
All-cause mortality (MITT Without STEMI): 32 (0.8) no. (%)
IDR (MITT Without STEMI): 44 (1.1) no. (%)
MI (MITT Without STEMI): 297 (7.7) no. (%)
Mortality/MI/IDR (MITT Without STEMI): 342 (8.9) no. (%)
Mortality/Q-wave MI/IDR (MITT Without STEMI): 77 (2.0) no. (%)
Mortality/Q-wave MI/Stent thrombosis (MITT Without STEMI): 54 (1.4) no. (%)
Q-wave MI (MITT Without STEMI): 7 (0.2) no. (%)
Stent thrombosis (MITT Without STEMI): 20 (0.5) no. (%)
All-cause mortality OR (95% CI) (MITT Without STEMI): 1.177 (0.704, 1.967)
IDR OR (95% CI) (MITT Without STEMI): 0.837 (0.559, 1.254)
MI OR (95% CI) (MITT Without STEMI): 1.072 (0.905, 1.272)
Mortality/MI/IDR OR (95% CI) (MITT Without STEMI): 1.044 (0.891, 1.224)
Mortality/Q-wave MI/IDR OR (95% CI) (MITT Without STEMI): 0.930 (0.679, 1.273)
Mortality/Q-wave MI/Stent thrombosis OR (95% CI) (MITT Without STEMI): 1.030 (0.702, 1.511)
Q-wave MI OR (95% CI) (MITT Without STEMI): 0.462 (0.188, 1.134)
Stent thrombosis OR (95% CI) (MITT Without STEMI): 0.991 (0.533, 1.846)
All-cause mortality OR (95% CI) (MITT): 1.046 (0.670, 1.635)
IDR OR (95% CI) (MITT): 0.902 (0.634, 1.283)
MI OR (95% CI) (MITT): 1.078 (0.914, 1.271)
Mortality/MI/IDR OR (95% CI) (MITT): 1.042 (0.895, 1.211)
Mortality/Q-wave MI/IDR OR (95% CI) (MITT): 0.927 (0.703, 1.222)
Mortality/Q-wave MI/Stent thrombosis OR (95% CI) (MITT): 0.924 (0.663, 1.290)
Q-wave MI OR (95% CI) (MITT): 0.595 (0.260, 1.362)
Stent thrombosis OR (95% CI) (MITT): 0.894 (0.530, 1.506)
All-cause mortality (Safety population): 40 (0.9) no. (%)
IDR (Safety population): 60 (1.4) no. (%)
MI (Safety population): 318 (7.4) no. (%)
Mortality/MI/IDR (Safety population): 379 (8.8) no. (%)
Mortality/Q-wave MI/IDR (Safety population): 100 (2.3) no. (%)
Mortality/Q-wave MI/Stent thrombosis (Safety population): 68 (1.6) no. (%)
Q-wave MI (Safety population): 9 (0.2) no. (%)
Stent thrombosis (Safety population): 27 (0.6) no. (%)
All-cause mortality OR (95% CI) (Safety population): 0.974 (0.629, 1.508)
IDR OR (95% CI) (Safety population): 0.893 (0.628, 1.268)
MI OR (95% CI) (Safety population): 1.090 (0.925, 1.285)
Mortality/MI/IDR OR (95% CI) (Safety population): 1.040 (0.895, 1.209)
Mortality/Q-wave MI/IDR OR (95% CI) (Safety population): 0.897 (0.682, 1.179)
Mortality/Q-wave MI/Stent thrombosis OR (95% CI) (Safety population): 0.892 (0.641, 1.240)
Q-wave MI OR (95% CI) (Safety population): 0.598 (0.262, 1.368)
Stent thrombosis OR (95% CI) (Safety population): 0.898 (0.533, 1.513)
Angiographic complications (site reported): Abrupt vessel closure (ITT): 24 (0.6)
Angiographic complications (site reported): Acute stent thrombosis (ITT): 2 (0.0)
Angiographic complications (site reported): Need for urgent CABG (ITT): 10 (0.2)
Angiographic complications (site reported): New thrombus or suspected thrombus (ITT): 17 (0.4)
Angiographic complications (site reported): Threatened abrupt closure (ITT): 13 (0.3)
Angiographic complications (site reported): Unsuccessful procedure (ITT): 90 (2.1)
Angiographic complications (site reported): Abrupt vessel closure (ITT With STEMI): 4 (0.9)
Angiographic complications (site reported): Acute stent thrombosis (ITT With STEMI): 0 (0.0)
Angiographic complications (site reported): Need for urgent CABG (ITT With STEMI): 2 (0.4)
Angiographic complications (site reported): New thrombus or suspected thrombus (ITT With STEMI): 1 (0.2)
Angiographic complications (site reported): Threatened abrupt closure (ITT With STEMI): 4 (0.9)
Angiographic complications (site reported): Unsuccessful procedure (ITT With STEMI): 9 (2.0)
Angiographic complications (site reported): Abrupt vessel closure (ITT Without STEMI): 20 (0.5)
Angiographic complications (site reported): Acute stent thrombosis (ITT Without STEMI): 2 (0.1)
Angiographic complications (site reported): Need for urgent CABG (ITT Without STEMI): 8 (0.2)
Angiographic complications (site reported): New thrombus or suspected thrombus (ITT Without STEMI): 16 (0.4)
Angiographic complications (site reported): Threatened abrupt closure (ITT Without STEMI): 9 (0.2)
Angiographic complications (site reported): Unsuccessful procedure (ITT Without STEMI): 81 (2.1)
Angiographic complications (site reported): Abrupt vessel closure (MITT): 24 (0.6)
Angiographic complications (site reported): Acute stent thrombosis (MITT): 2 (0.0)
Angiographic complications (site reported): Need for urgent CABG (MITT): 8 (0.2)
Angiographic complications (site reported): New thrombus or suspected thrombus (MITT): 17 (0.4)
Angiographic complications (site reported): Threatened abrupt closure (MITT): 13 (0.3)
Angiographic complications (site reported): Unsuccessful procedure (MITT): 90 (2.1)
Angiographic complications (site reported): Abrupt vessel closure (MITT NSTEMI): 20 (0.5)
Angiographic complications (site reported): Acute stent thrombosis (MITT NSTEMI): 2 (0.1)
Angiographic complications (site reported): Need for urgent CABG (MITT NSTEMI): 7 (0.2)
Angiographic complications (site reported): New thrombus or suspected thrombus (MITT NSTEMI): 16 (0.4)
Angiographic complications (site reported): Threatened abrupt closure (MITT NSTEMI): 9 (0.2)
Angiographic complications (site reported): Unsuccessful procedure (MITT NSTEMI): 81 (2.1)
Angiographic complications (site reported): Abrupt vessel closure (Safety population): 24 (0.6)
Angiographic complications (site reported): Acute stent thrombosis (Safety population): 2 (0.0)
Angiographic complications (site reported): Need for urgent CABG (Safety population): 8 (0.2)
Angiographic complications (site reported): New thrombus or suspected thrombus (Safety population): 17 (0.4)
Angiographic complications (site reported): Threatened abrupt closure (Safety population): 13 (0.3)
Angiographic complications (site reported): Unsuccessful procedure (Safety population): 90 (2.1)
